The numbers were not newly measured in patent US20260108637A1, “USES OF PSMA-TARGETING AND TSPO-TARGETING COMPOUNDS FOR EVALUATION OF INJURIES IN THE PERIPHERAL NERVOUS SYSTEM” (The Johns Hopkins University, priority 2023, published 2026), which cites them from elsewhere.

The target of the series is GCPII (Homo sapiens, UniProt Q04609). The note with it: described previously, Chen et al., 2009.
Chain of GCPII (Q04609 whole entry, species assumed): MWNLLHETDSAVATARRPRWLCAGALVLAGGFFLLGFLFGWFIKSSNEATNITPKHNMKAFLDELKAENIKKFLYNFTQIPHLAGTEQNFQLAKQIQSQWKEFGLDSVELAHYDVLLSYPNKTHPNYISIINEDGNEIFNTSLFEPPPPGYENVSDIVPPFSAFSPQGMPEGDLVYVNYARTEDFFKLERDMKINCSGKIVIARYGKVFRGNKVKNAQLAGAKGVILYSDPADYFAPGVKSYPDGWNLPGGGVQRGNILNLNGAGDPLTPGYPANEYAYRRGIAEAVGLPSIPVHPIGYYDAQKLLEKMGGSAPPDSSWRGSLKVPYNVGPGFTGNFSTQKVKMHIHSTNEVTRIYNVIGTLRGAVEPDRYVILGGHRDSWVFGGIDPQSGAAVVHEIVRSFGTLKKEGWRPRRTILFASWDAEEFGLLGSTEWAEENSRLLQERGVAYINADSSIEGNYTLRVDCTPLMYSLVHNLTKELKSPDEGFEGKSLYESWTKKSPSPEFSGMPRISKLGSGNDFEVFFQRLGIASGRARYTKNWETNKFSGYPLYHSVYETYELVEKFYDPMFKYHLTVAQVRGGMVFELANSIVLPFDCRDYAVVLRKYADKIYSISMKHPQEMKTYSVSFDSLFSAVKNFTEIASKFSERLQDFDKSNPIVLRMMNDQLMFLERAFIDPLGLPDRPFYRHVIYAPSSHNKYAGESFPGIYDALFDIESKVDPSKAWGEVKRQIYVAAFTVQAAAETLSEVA

As to `CC1(C)C(/C=C/C2=C(Oc3ccc(S(=O)(=O)O)cc3)C(=C/C=C3/N(CCCCS(=O)(=O)O)c4ccc(S(=O)(=O)O)cc4C3(C)C)/CCC2)=[N+](CCCCCC(=O)NCCCCC(NC(=O)CCCCCCC(=O)NCCCC[C@H](NC(=O)N[C@@H](CCC(=O)O)C(=O)O)C(=O)O)C(=O)O)c2ccc(S(=O)(=O)[O-])cc21` (stereo partly shown) [YC27], the Ki – broadly, a dissociation constant, usually derived from enzyme kinetics or from competition with a known ligand – was 370 pM.
